In US20220304947A1, “COMPOSITIONS AND METHODS FOR INHIBITING PROTEOLYTIC ACTIVATION OF VIRUSES” (priority 2021, published 2022):
Where two headings read alike, the source gives them in different places. Residues, ends and D or L forms follow the SMILES beside them. *: point of attachment. Decanoyl = CCCCCCCCCC(=O)*; CH2Cl = ClC*

How the values were obtained:
[1] = molecular target: Recombinant human Furin protein (Homo sapiens, UniProt P09958); assay: Inhibition of proteolytic enzyme (Furin) activity, fluorogenic substrate pGlu-Arg-Thr-Lys-Arg-AMC; assay type: biochemical; conditions: for inhibition at 6.25 µg/mL: at 6.25 μg/ml; for inhibition at 100 µg/mL: at 100 μg/ml
Chain of Recombinant human Furin protein (P09958 108-794): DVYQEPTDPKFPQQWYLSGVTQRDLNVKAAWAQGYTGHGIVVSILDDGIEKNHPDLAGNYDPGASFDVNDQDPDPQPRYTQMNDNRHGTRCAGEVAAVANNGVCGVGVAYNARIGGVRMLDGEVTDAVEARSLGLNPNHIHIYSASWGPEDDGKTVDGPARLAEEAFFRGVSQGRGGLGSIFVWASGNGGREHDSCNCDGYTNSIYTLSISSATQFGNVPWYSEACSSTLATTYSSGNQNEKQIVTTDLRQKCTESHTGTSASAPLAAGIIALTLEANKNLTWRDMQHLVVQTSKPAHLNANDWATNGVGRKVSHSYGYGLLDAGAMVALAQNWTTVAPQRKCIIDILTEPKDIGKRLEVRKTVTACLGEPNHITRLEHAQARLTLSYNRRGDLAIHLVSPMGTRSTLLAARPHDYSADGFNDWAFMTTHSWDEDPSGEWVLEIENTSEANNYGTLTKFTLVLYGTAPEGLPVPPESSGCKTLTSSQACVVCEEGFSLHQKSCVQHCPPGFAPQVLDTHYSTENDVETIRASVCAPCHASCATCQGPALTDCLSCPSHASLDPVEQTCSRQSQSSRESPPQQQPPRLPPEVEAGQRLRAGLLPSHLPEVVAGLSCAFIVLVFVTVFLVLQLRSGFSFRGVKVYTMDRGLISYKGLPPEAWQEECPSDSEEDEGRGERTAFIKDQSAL

SARS-CoV-2 = assay: Anti-viral assay against SARS-CoV-2 in Vero E6 cells (qRT-PCR viral load); assay type: cell-based; conditions: Ribavirin 2 μM, compared to infected cells only
[2] = read-out: Percentage inhibition of Furin
[3] = read-out: IC50, inhibition of Furin (converted)

Row | Compound | inhibition at 6.25 µg/mL [1, 2] [%] | inhibition at 100 µg/mL [1, 2] [%] | IC50 [1, 3] [µM] | inhibition at 25 µg/mL ([1]; at 25 μg/ml, read-out: Percentage inhibition of Furin) [%] | IC50 ([1]; read-out: IC50, inhibition of Furin (positive control)) [µM] | reduction of viral load (SARS-CoV-2) [%]
1 | O=C(/C=C/c1ccc(O)cc1)CC(=O)/C=C/c1ccc(O)cc1 [BDMC, Bisdemethoxycurcumin] | 34 | 78 | 48 |  |  | 
2 | COc1cc(/C=C/C(=O)CC(=O)/C=C/c2ccc(O)c(OC)c2)ccc1O [Curcumin] | 9.64 | 72.6 | 62.6 | 64.2 |  | 
3 | CCCCCCCCCC(=O)N[C@@H](CCCNC(=N)N)C(=O)N[C@H](C(=O)N[C@@H](CCCCN)C(=O)N[C@@H](CCCNC(=N)N)C(=O)CCl)C(C)C [Decanoyl RVKR chloromethyl ketone] (Decanoyl-RVKR-CH2Cl) |  |  |  |  | 0.0134 | 
4 | NC(=O)c1ncn([C@@H]2O[C@H](CO)[C@@H](O)[C@H]2O)n1 [Ribavirin] |  |  |  |  |  | 83
